The record followed here is US9227971B2, “Pyrazolo[1,5-a]pyrimidine compounds as mTOR inhibitors” (Merck Sharp & Dohme Corp., priority 2010, dated 2016).

The subject of assay [1] is phosphorylated AKT Ser473 (pAKT S473), mTORC2 activity, PC3 cells. The assay is described as follows: mTOR target engagement assay, immunofluorescent cell-based, pAKT S473 readout (mTORC2 activity). As to conditions: Homo sapiens. On the procedure: (§1) The target engagement of mTOR kinase inhibitors was evaluated using an immunofluorescent cell-based assay. In this assay, inhibition of mTORC1 activity was measured by the reduction in the level of phosphorylated 4E-BP1^[…] (p4E-BP1 Thr37/46), and inhibition of mTORC2 activity was measured by the reduction of phosphorylated AKT^Ser473 (pAKT S473).
PC3 cells (prostate tumor cell-line that contains a mutation in the tumor suppressor PTEN, that promotes the phosphorylation and activation of AKT and 4E-BP1) were used in the immunofluorescence assay. […] PC3 cells were then treated with 40 μl of the serially diluted test compounds (in 5% fetal bovine serum, F12 medium containing 0.25% DMSO) for ninety minutes at 37° C. The test compound solution was removed, and the plates were washed gently two times with 25 μl phosphate buffered saline (PBS). […] 5% Goat serum in PBS/0.3% Triton was used to block non-specific binding (60 minutes).
The primary antibodies targeting pAKT S473 and p4E-BP1 Thr37/46 were diluted into PBS/0.3% Triton and incubated with the cells overnight at 4° C. […] Plates were washed three times with PBS/0.1% Tween 20 before adding the secondary antibody at a 1:200 dilution.
Finally, the plates were washed three times with PBS/0.1% Tween 20 and the fluorescent intensity was read using an Analyst HT from Molecular Devices.

For assay [2], the system named is phosphorylated 4E-BP1 Thr37/46 (p4E-BP1 Thr37/46), mTORC1 activity, PC3 cells. Description: mTOR target engagement assay, immunofluorescent cell-based, p4E-BP1 Thr37/46 readout (mTORC1 activity). As to conditions: Homo sapiens, read-out: p4E-BP1 Thr37/46 IC50. On the procedure: as §1
PC3 cells (prostate tumor cell-line that contains a mutation in the tumor suppressor PTEN, that promotes the phosphorylation and activation of AKT and 4E-BP1) were used in the immunofluorescence assay. PC3 cells were seeded on 384 well plates (black clear bottom, Matrix #4332) overnight. PC3 cells were then treated with 40 μl of the serially diluted test compounds (in 5% fetal bovine serum, F12 medium containing 0.25% DMSO) for ninety minutes at 37° C. The test compound solution was removed, and the plates were washed gently two times with 25 μl phosphate buffered saline (PBS). The cells were fixed by adding 25 μl of Prefer reagent (from Anatech LTD, Cat#414, a glyoxal fixative for fixing proteins within a cell) for sixty minutes followed by three washes with PBS. 5% Goat serum in PBS/0.3% Triton was used to block non-specific binding (60 minutes).
The primary antibodies targeting pAKT S473 and p4E-BP1 Thr37/46 were diluted into PBS/0.3% Triton and incubated with the cells overnight at 4° C. The antibodies targeting pAKTS473 (Cat#4085, Cell signaling) and p4E-BP1 Thr37/46 (Cat#2855, Cell signaling) were used at a 1:100 dilution. Plates were washed three times with PBS/0.1% Tween 20 before adding the secondary antibody at a 1:200 dilution. (goat anti-rabbit containing a fluorescent label, Alexa Fluor 488, Cat#A11008, Invitrogen) in PBS/0.3% Triton for 60 minutes.
Finally, the plates were washed three times with PBS/0.1% Tween 20 and the fluorescent intensity was read using an Analyst HT from Molecular Devices. The fluorescent intensity values from the serially diluted compound treatment group were analyzed using the Xlfit 4 program ([…]) (Formula 205: Y=Bottom+(Top-Bottom)/(1+(IC50/X)^Hillslope) to generate the IC50 value. Where Top is the maximum signal without Compound (+DMSO only) and Bottom represents maximum inhibition. Y is the fluorescence at some compound concentration. The control used to determine the fluorescent intensities for 100% pAKT S473 or 100% phosphorylated p4E-BP1 Thr37/46 were measured from untreated wells that contained only DMSO, instead of test compound.

[3] abbreviates: PC-3, PC3 cells, compound treatment ninety minutes at 37° C.

Like-named read-outs stand apart in the source and are kept apart here.

For the compound `CN(C)c1nnc(C(=O)N2[C@@H]3CC[C@H]2C[C@H](c2nc4c(-c5ccc(-c6ccccc6)nc5)cnn4c(N)c2S(C)(=O)=O)C3)[nH]1` [Compound 3.93, ((1R,3s,5S)-3-(7-amino-6-(methylsulfonyl)-3-(6-phenylpyridin-3-yl)pyrazolo[1,5-a]pyrimidin-5-yl)-8-azabicyclo[3.2.1]octan-8-yl)(5-(dimethylamino)-4H-1,2,4-triazol-3-yl)methanone], the IC50 in assay [1] (PC-3, Table 3-1, PC3 cells) was in the range of 100 to 1000 nM; in assay [2] (PC-3, Table 3-1, PC3 cells) it was 100 to 1000 nM.

For the compound `CS(=O)(=O)c1c([C@@H]2C[C@H]3CC[C@@H](C2)N3c2nccc(N)n2)nc2c(-c3ccc(-c4ccccc4)nc3)cnn2c1N` [Compound 8.63, 5-((1R,3s,5S)-8-(4-aminopyrimidin-2-yl)-8-azabicyclo[3.2.1]octan-3-yl)-6-(methylsulfonyl)-3-(6-phenylpyridin-3-yl)pyrazolo[1,5-a]pyrimidin-7-amine], the IC50 in assay [1] (PC-3, PC3 cells) is 1000 to 10000 nM; in assay [2] (PC-3, PC3 cells), 1000 to 10000 nM.

For the compound `CC(=O)c1c([C@@H]2C[C@H]3CC[C@@H](C2)N3C(=O)c2nnc[nH]2)nc2c(-c3ccc([C@@H](O)C(F)(F)F)nc3)cnn2c1N` [Compound 7.73, 1-(5-((1R,3s,5S)-8-(4H-1,2,4-triazole-3-carbonyl)-8-azabicyclo[3.2.1]octan-3-yl)-7-amino-3-(6-((R)-2,2,2-trifluoro-1-hydroxyethyl)pyridin-3-yl)pyrazolo[1,5-a]pyrimidin-6-yl)ethanone], the IC50 fell in the range of 100 to 1000 nM in assay [1] (PC-3, PC3 cells) and 100 to 1000 nM in assay [2] (PC-3, PC3 cells).

Take `COc1ccc(-c2ccc(-c3cnn4c(N)c(Br)c([C@@H]5C[C@H]6CC[C@@H](C5)N6C(=O)[C@@H](C)O)nc34)cn2)cc1CO` [Compound 2.3, (R)-1-((1R,3S,5S)-3-(7-amino-6-bromo-3-(6-(3-(hydroxymethyl)-4-methoxyphenyl)pyridin-3-yl)pyrazolo[1,5-a]pyrimidin-5-yl)-8-azabicyclo[3.2.1]octan-8-yl)-2-hydroxypropan-1-one]: the IC50 in assay [1] (setting [3]) and in assay [2] (setting [3]) was 1 to 100 nM in each case.

For `CNC(=O)c1ccc(-c2cnn3c(N)c(S(C)(=O)=O)c([C@@H]4C[C@H]5CC[C@@H](C4)N5C(=O)c4nc[nH]n4)nc23)cn1` [Compound 3.17, 5-(5-((1R,3s,5S)-8-(1H-1,2,4-triazole-3-carbonyl)-8-azabicyclo[3.2.1]octan-3-yl)-7-amino-6-(methylsulfonyl)pyrazolo[1,5-a]pyrimidin-3-yl)-N-methylpicolinamide], the IC50 in assay [1] (PC-3, Table 3-1, PC3 cells) is over 10000 nM; in assay [2] (PC-3, Table 3-1, PC3 cells), 1000 to 10000 nM.

As for `CS(=O)(=O)c1c([C@@H]2C[C@H]3CC[C@@H](C2)N3C(=O)c2ccn[nH]2)nc2c(-c3ccc(-c4ccccc4F)nc3)cnn2c1N` [Compound 3.135, ((1R,3s,5S)-3-(7-amino-3-(6-(2-fluorophenyl)pyridin-3-yl)-6-(methylsulfonyl)pyrazolo[1,5-a]pyrimidin-5-yl)-8-azabicyclo[3.2.1]octan-8-yl)(1H-pyrazol-5-yl)methanone], the IC50 in assay [1] (PC-3, Table 3-1, PC3 cells) was in the range of 1 to 100 nM; in assay [2] (PC-3, Table 3-1, PC3 cells), 1 to 100 nM.

`CC(=O)c1c([C@@H]2C[C@H]3CC[C@@H](C2)N3C(=O)N2CCOCC2)nc2c(-c3ccc(-c4ccccc4)nc3)cnn2c1N` [Compound 1.1.122, 1-(7-amino-5-((1R,3s,5S)-8-(morpholine-4-carbonyl)-8-azabicyclo[3.2.1]octan-3-yl)-3-(6-phenylpyridin-3-yl)pyrazolo[1,5-a]pyrimidin-6-yl)ethanone]: the IC50 in assay [1] (setting [3]) and in assay [2] (setting [3]) was 1000 to 10000 nM each time.

For `CS(=O)(=O)c1c([C@@H]2C[C@H]3CC[C@@H](C2)N3C(=O)CO)nc2c(-c3cnc(-c4ccccc4)c(O)c3)cnn2c1N` [Compound 3.23, 1-((1R,3s,5S)-3-(7-amino-3-(5-hydroxy-6-phenylpyridin-3-yl)-6-(methylsulfonyl)pyrazolo[1,5-a]pyrimidin-5-yl)-8-azabicyclo[3.2.1]octan-8-yl)-2-hydroxyethanone], the IC50 in assay [1] (PC-3, Table 3-1, PC3 cells) is 1000 to 10000 nM; in assay [2] (PC-3, Table 3-1, PC3 cells), 1000 to 10000 nM.

Take `CS(=O)(=O)c1c([C@@H]2C[C@H]3CC[C@@H](C2)N3C(=O)c2cn[nH]c2)nc2c(-c3ccc(-c4ccccc4)nc3)cnn2c1N` [Compound 3.83, ((1R,3s,5S)-3-(7-amino-6-(methylsulfonyl)-3-(6-phenylpyridin-3-yl)pyrazolo[1,5-a]pyrimidin-5-yl)-8-azabicyclo[3.2.1]octan-8-yl)(1H-pyrazol-4-yl)methanone]: the IC50 in assay [1] (PC-3, Table 3-1, PC3 cells) lay in the range of 1 to 100 nM; in assay [2] (PC-3, Table 3-1, PC3 cells), 1 to 100 nM.

On to `CS(=O)(=O)c1c([C@@H]2C[C@H]3CC[C@@H](C2)N3C(=O)c2nnc[nH]2)nc2c(-c3ccc(CO)c(F)c3)cnn2c1N` [Compound 8.42, ((1R,3s,5S)-3-(7-amino-3-(3-fluoro-4-(hydroxymethyl)phenyl)-6-(methylsulfonyl)pyrazolo[1,5-a]pyrimidin-5-yl)-8-azabicyclo[3.2.1]octan-8-yl)(4H-1,2,4-triazol-3-yl)methanone], for which the IC50 was in the range of 1 to 100 nM in assay [1] (PC-3, PC3 cells) and 1 to 100 nM in assay [2] (PC-3, PC3 cells).

As to `CS(=O)(=O)c1c([C@H]2CC3CC[C@H](C2)N3C(=O)c2cn[nH]n2)nc2c(-c3cnc4ccc(F)cc4c3)cnn2c1N` [Compound 3.177, ((1R,3s,5S)-3-(7-amino-3-(6-fluoroquinolin-3-yl)-6-(methylsulfonyl)pyrazolo[1,5-a]pyrimidin-5-yl)-8-azabicyclo[3.2.1]octan-8-yl)(2H-1,2,3-triazol-4-yl)methanone], the IC50 is 100 to 1000 nM in assay [1] (PC-3, Table 3-1, PC3 cells) and 100 to 1000 nM in assay [2] (PC-3, Table 3-1, PC3 cells).

For the compound `CC(=O)c1c([C@@H]2C[C@H]3CC[C@@H](C2)N3C(=O)c2nnc[nH]2)nc2c(-c3cnc(-c4ccccc4)nc3)cnn2c1N` [Compound 1.1.179, 1-(5-((1R,3s,5S)-8-(4H-1,2,4-triazole-3-carbonyl)-8-azabicyclo[3.2.1]octan-3-yl)-7-amino-3-(2-phenylpyrimidin-5-yl)pyrazolo[1,5-a]pyrimidin-6-yl)ethanone], the IC50 in assay [1] (setting [3]) and in assay [2] (setting [3]) was 1 to 100 nM throughout.

`Cc1cnc(-c2ccc(-c3cnn4c(N)c(C5CC5)c([C@@H]5C[C@H]6CC[C@@H](C5)N6C(=O)CO)nc34)cn2)[nH]1` [Compound 6.27, 1-((1R,3s,5S)-3-(7-amino-6-cyclopropyl-3-(6-(5-methyl-1H-imidazol-2-yl)pyridin-3-yl)pyrazolo[1,5-a]pyrimidin-5-yl)-8-azabicyclo[3.2.1]octan-8-yl)-2-hydroxyethanone]: the IC50 in assay [1] (PC-3, Table 6-1, PC3 cells) lay in the range of 1 to 100 nM; in assay [2] (PC-3, Table 6-1, PC3 cells), 1 to 100 nM.

Take `CC(=O)c1c([C@@H]2C[C@H]3CC[C@@H](C2)N3C(=O)CO)nc2c(-c3ccc(-c4nccs4)nc3)cnn2c1N` [Compound 1.1.33, 1-((1R,3s,5S)-3-(6-acetyl-7-amino-3-(6-(thiazol-2-yl)pyridin-3-yl)pyrazolo[1,5-a]pyrimidin-5-yl)-8-azabicyclo[3.2.1]octan-8-yl)-2-hydroxyethanone]: the IC50 lay within 1 to 100 nM in assay [1] (setting [3]) and 100 to 1000 nM in assay [2] (setting [3]).

For `C[C@@H](O)C(=O)N1[C@@H]2CC[C@H]1C[C@H](c1nc3c(-c4ccc(-c5ccccc5)nc4)cnn3c(N)c1S(C)(=O)=O)C2` [Compound 3.28, (R)-1-((1R,3S,5S)-3-(7-amino-6-(methylsulfonyl)-3-(6-phenylpyridin-3-yl)pyrazolo[1,5-a]pyrimidin-5-yl)-8-azabicyclo[3.2.1]octan-8-yl)-2-hydroxypropan-1-one], the IC50 in assay [1] (PC-3, Table 3-1, PC3 cells) lay within 100 to 1000 nM; in assay [2] (PC-3, Table 3-1, PC3 cells), 100 to 1000 nM.
